Reference: PMC8480782, “Efficient Dimerization Disruption of Leishmania infantum Trypanothione Reductase by Triazole-phenyl-thiazoles” (Journal of Medicinal Chemistry, 2021)

Legend:
[1] = target: T1, LiTryR (Leishmania infantum, UniProt A4HSF7); experiment: biochemical; assay type: biochemical; details: for IC50: LiTryR, 1 μM TS2, maximum assayed 75 μM, read-out: IC50^act, TryR oxidoreductase activity
T1 construct: HIS (N); made in house; host or cells: E. coli BL21 (DE3) Rossetta
Procedure, shortened: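 Recombinant HIS- or HIS-FLAG-tagged LiTryR (7 nM, E. coli-expressed) in DTNB-coupled assay at 26 °C, pH 7.5 HEPES with NADP+ 30 μM, DTNB 25 μM, NADPH 150 μM, TS2 1 μM, 1.75% DMSO. Reaction started with NADPH/TS2; TNB formation followed at 412 nm, data fitted by nonlinear regression.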

[2] = target: T2, LiTryR dimer (Leishmania infantum, UniProt A4HSF7); experiment: biochemical; details: for IC50: 400 nM LiTryR, 16 h at 37 °C, read-out: IC50^dim, LiTryR monomer displacement (dimer quantitation ELISA); for inhibition at 20 µM: read-out: Percentage of inhibition (dimerization) observed at 20 μM, 20 μM compound
T2 construct: made in house; host or cells: E. coli BL21 (DE3) Rossetta (co-transformed with both plasmids)
T2 sequence (A4HSF7 1-491): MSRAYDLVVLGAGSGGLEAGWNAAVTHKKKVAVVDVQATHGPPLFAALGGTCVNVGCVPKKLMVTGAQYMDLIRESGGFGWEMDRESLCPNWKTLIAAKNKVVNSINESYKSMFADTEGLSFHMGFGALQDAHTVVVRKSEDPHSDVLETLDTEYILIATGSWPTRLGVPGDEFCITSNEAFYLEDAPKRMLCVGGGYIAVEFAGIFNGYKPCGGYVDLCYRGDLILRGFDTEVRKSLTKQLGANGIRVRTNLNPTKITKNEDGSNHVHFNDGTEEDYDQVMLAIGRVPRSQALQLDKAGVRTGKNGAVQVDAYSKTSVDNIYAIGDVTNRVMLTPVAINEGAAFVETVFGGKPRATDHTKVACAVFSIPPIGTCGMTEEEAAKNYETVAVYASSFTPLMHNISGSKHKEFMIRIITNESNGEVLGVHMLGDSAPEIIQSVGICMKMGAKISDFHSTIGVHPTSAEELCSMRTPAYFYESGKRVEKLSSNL

T1 sequence (A4HSF7 1-491): as above

Compound | IC50 [1] | fold more potent than 12n, IC50^act ([1]; versus monomeric 12n) | IC50 [2] | fold more potent than 12n, IC50^dim ([2]; versus monomeric 12n) | inhibition at 20 µM [2]
NCCCCc1cn(-c2ccc(-c3nc(-c4cccc(-c5csc(-c6ccc(-n7cc(CCCCN)nn7)cc6OCCN6CCNC6=O)n5)c4)cs3)c(OCCN3CCNC3=O)c2)nn1.O=C(O)C(F)(F)F.O=C(O)C(F)(F)F [compound 22, 1,1′-((((1,3-Phenylenebis(thiazole-4,2-diyl))bis(5-(4-(4-ammoniobutyl)-1H-1,2,3-triazol-1-yl)-2,1-phenylene))bis(oxy))bis(ethane-2,1-diyl))bis(imidazolidin-2-one)bis(2,2,2-trifluoroacetate)] | 0.4 ± 0.03 µM | 28 fold | 8 ± 0.2 µM | 4 fold | –
NCCCCc1cn(-c2ccc(-c3nc(-c4ccccc4)cs3)c(OCCN3CCNC3=O)c2)nn1.O=C(O)C(F)(F)F [12n] | 11.2 ± 0.2 µM | – | 29 ± 1.5 µM | – | –
NCCCCc1cn(-c2ccc(-c3nc(CCc4ccc5c(c4)CCCN5)cs3)c(OCCN3CCNC3=O)c2)nn1.O=C(O)C(F)(F)F.O=C(O)C(F)(F)F [12q] | 6.9 ± 2.1 µM | – | > 75 µM | – | –
NCCCCc1cn(-c2ccc(-c3nc(-c4ccc(Oc5ccccc5)cc4)c(-c4ccccc4)s3)c(OCCN3CCNC3=O)c2)nn1.O=C(O)C(F)(F)F [19c, 1-(2-(5-(4-(4-Ammoniobutyl)-1H-1,2,3-triazol-1-yl)-2-(4-([4-phenyloxyphenyl]-1-yl)-5-phenylthiazol-2-yl)phenoxy)ethyl)imidazolidin-2-one 2,2,2-Trifluoroacetate] | 16.9 ± 2.7 µM | – | 9 ± 0.5 µM | – | –
NCCNCc1nccn1-c1ccc(-c2nc(CCc3ccc(-c4ccccc4)cc3)cs2)c(OCCN2CCNC2=O)c1 [compound 3, reference compound] | 8.6 ± 1.4 µM | – | – | – | ~30%
NCCCCc1cn(-c2ccc(-c3nc(CCc4ccc5c(c4)CCO5)cs3)c(OCCN3CCNC3=O)c2)nn1.O=C(O)C(F)(F)F [12r] | 11.9 ± 0.6 µM | – | 10.7 ± 0.5 µM | – | –
NCCCCc1cn(-c2ccc(-c3nc(CCc4ccc5oc6ccccc6c5c4)cs3)c(OCCN3CCNC3=O)c2)nn1.O=C(O)C(F)(F)F [12s] | 6.6 ± 1.9 µM | – | 8.8 ± 0.2 µM | – | –
NCCNCc1nccn1-c1ccc(-c2nc(CCc3ccc4ccccc4c3)cs2)c(OCCN2CCNC2=O)c1 [compound 2, reference compound] | 5.1 ± 0.4 µM | – | – | – | ~30%
NCCCc1cn(-c2ccc(-c3nc(CCc4ccc(-c5ccccc5)cc4)cs3)c(OCCN3CCNC3=O)c2)nn1.O=C(O)C(F)(F)F [12i] | 19.7 ± 3.8 µM | – | 10.8 ± 0.1 µM | – | –
NCCCCc1cn(-c2ccc(-c3nc(CCc4ccc5ccccc5c4)cs3)c(OCCN3CCNC3=O)c2)nn1.O=C(O)C(F)(F)F [12b, 1-(2-(5-(4-(4-Ammoniumbutyl)-1H-1,2,3-triazol-1-yl)-2-(4-(2-(naphthalen-2-yl)ethyl)thiazol-2-yl)phenoxy)ethyl)imidazolidin-2-one 2,2,2-Trifluoroacetate] | 5.9 ± 1.1 µM | – | 7.1 ± 0.6 µM | – | 73%
NCCCCc1cn(-c2ccc(-c3nc(-c4ccccc4)c(-c4ccccc4)s3)c(OCCN3CCNC3=O)c2)nn1.O=C(O)C(F)(F)F [19a, 1-(2-(5-(4-(4-Ammoniobutyl)-1H-1,2,3-triazol-1-yl)-2-(4,5-diphenylthiazol-2-yl)phenoxy)ethyl)imidazolidin-2-one 2,2,2-Trifluoroacetate] | 4.3 ± 1 µM | – | 7.1 ± 1.7 µM | – | –
NCCCCc1cn(-c2ccc(-c3nc(CCc4ccc(-c5ccccc5)cc4)cs3)c(OCCN3CCNC3=O)c2)nn1.O=C(O)C(F)(F)F [12c, 1-(2-(2-(4-(2-([1,1′-Biphenyl]-4-yl)ethyl)thiazol-2-yl)-5-(4-(4-ammoniumbutyl)-1H-1,2,3-triazol-1-yl)phenoxy)ethyl)imidazolidin-2-one 2,2,2-Trifluoroacetate] | 10.9 ± 1.8 µM | – | 4.8 ± 0.6 µM | – | 78%
